From US20250171495A1, “MUTLI-TARGETED SERINE PROTEASE INHIBITORS FOR TREATMENT OF CANCER AND VIRAL INFECTION” (Washington University, priority 2023, published 2025)
pIC50: −log10 of the molar value. Like-named read-outs stand apart in the source and are kept apart here.

Key:
Type in all cases: biochemical
TMPRSS2 = TMPRSS2 (Homo sapiens, UniProt O15393); experiment: Fluorogenic kinetic enzyme inhibitor assay, TMPRSS2; set-up: purchased Cusabio Technology CSB-YP023924HU; details: read-out: TMPRSS2 IC50
hepsin = target: T1, hepsin (Homo sapiens, UniProt P05981); experiment: Fluorogenic kinetic enzyme inhibitor assay, hepsin; details: read-out: Hepsin IC50
T1 construct: purchased R&D Systems 4776-SE-010

HGFA = target: T2, HGFA (Homo sapiens, UniProt Q04756); experiment: Fluorogenic kinetic enzyme inhibitor assay, HGFA; details: read-out: HGFA IC50
T2 construct: purchased R&D Systems 1514-SE-010
T2 sequence (Q04756 408-655 limits assumed): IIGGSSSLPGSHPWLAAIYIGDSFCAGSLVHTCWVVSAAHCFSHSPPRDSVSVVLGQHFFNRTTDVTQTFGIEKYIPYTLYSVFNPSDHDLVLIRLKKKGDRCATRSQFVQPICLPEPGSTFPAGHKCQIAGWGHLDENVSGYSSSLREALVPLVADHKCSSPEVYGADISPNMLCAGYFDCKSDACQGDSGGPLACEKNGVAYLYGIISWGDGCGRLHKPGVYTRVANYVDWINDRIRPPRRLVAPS
T2 sequence (Q04756 373-407 partner limits assumed): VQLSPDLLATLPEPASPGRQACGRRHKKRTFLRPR

matriptase = target: T3, matriptase (Homo sapiens, UniProt Q9Y5Y6); experiment: Fluorogenic kinetic enzyme inhibitor assay, matriptase
T3 construct: purchased R&D Systems 3946-SEB-010
T3 sequence (Q9Y5Y6 615-855 limits assumed): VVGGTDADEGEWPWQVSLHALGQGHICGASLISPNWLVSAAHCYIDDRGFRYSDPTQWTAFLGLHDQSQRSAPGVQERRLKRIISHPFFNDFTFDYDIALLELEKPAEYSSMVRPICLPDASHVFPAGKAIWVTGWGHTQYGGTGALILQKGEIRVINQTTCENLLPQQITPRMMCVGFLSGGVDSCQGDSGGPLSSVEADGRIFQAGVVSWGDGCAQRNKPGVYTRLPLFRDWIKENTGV

Factor Xa = target: T4, Factor Xa (Homo sapiens, UniProt P00742); experiment: Fluorogenic assay, Factor Xa; details: read-out: Factor Xa IC50
T4 construct: TMPRSS2; Matriptase; Hepsin; HGFA; Thrombin; Factor Xa

Thrombin = Thrombin (Homo sapiens, UniProt P00734); experiment: Fluorogenic assay, thrombin

T4 sequence (P00742 235-488 limits assumed): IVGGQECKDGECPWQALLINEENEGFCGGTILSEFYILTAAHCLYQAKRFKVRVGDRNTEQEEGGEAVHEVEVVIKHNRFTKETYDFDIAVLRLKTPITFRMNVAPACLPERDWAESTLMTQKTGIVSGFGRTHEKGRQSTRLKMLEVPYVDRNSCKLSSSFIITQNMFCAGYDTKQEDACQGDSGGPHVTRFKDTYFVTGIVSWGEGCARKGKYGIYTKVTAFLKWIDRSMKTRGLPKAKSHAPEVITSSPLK
T4 sequence (P00742 41-179 partner limits assumed): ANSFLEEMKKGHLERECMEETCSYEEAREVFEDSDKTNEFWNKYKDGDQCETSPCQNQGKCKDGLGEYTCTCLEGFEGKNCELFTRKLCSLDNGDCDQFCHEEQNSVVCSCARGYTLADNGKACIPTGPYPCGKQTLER
T1 sequence (P05981 163-417 limits assumed): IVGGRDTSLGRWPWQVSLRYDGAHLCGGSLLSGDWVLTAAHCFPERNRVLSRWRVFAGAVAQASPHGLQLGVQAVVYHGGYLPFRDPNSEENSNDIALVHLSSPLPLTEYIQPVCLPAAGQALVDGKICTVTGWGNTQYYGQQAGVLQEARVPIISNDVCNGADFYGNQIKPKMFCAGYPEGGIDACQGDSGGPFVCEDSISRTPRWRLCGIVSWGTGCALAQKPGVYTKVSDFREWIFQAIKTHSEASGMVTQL
T1 sequence (P05981 1-162 partner limits assumed): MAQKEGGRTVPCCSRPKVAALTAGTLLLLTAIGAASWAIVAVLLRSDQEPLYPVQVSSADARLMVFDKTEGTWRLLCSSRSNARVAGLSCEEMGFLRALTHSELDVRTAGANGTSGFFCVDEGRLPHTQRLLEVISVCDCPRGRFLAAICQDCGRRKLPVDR
Chain of TMPRSS2 (O15393 106-492 limits assumed): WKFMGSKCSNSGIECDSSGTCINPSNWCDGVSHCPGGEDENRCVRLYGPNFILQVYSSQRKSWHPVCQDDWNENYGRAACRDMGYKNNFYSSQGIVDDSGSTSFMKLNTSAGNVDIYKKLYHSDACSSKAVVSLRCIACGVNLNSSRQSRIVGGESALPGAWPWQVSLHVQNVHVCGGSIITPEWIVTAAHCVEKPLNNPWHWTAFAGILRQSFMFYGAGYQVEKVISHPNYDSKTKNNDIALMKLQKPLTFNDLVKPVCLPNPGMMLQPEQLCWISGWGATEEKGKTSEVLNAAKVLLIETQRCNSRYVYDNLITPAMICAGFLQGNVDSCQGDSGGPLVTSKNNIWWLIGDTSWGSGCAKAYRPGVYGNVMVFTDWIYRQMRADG

| SMILES | pIC50 (TMPRSS2) | pIC50 (hepsin) | pIC50 (HGFA) | pIC50 (matriptase) | pIC50 (Factor Xa) | pIC50 (Thrombin) | pIC50 (matriptase; read-out: Matriptase IC50) | pIC50 (hepsin; 30 min incubation, Boc-QAR-AMC at Km) | pIC50 (HGFA; 30 min incubation, Boc-QLR-AMC at Km) |
| --- | --- | --- | --- | --- | --- | --- | --- | --- | --- |
| CCC(C)[C@H](NC(C)=O)C(=O)N[C@@H](CCC(N)=O)C(=O)N[C@@H](Cc1c[nH]c2ccccc12)C(=O)N[C@@H](CCCNC(=N)N)C(=O)c1nc2ccccc2s1 (stereo partly drawn) [MM3187, N-[(S)-2-(3-indolyl)-1-[N-(S)-1-[(1,3-benzothiazol-2-yl)carbonyl]-4-guanidinobutylcarbamoyl]ethyl](S)-2-[(2S)-2-acetylamino-3-methylvalerylamino]glutaramide] | 8.66 | 9.50 | 5.84 | 8.91 | 6.89 | < 4.70 |  |  |  |
| CC(=O)N[C@H](Cc1c[nH]c2ccccc12)C(=O)N[C@@H](Cc1ccccc1)C(=O)N[C@@H](CCCNC(=N)N)C(=O)c1nc2ccccc2s1 [PK-1-89A1, N-[(S)-1-[(1,3-benzothiazol-2-yl)carbonyl]-4-guanidinobutyl](S)-2-[(R)-2-acetylamino-3-(3-indolyl)propionylamino]-3-phenylpropionamide] | 9.81 | 8.96 | 7.57 |  | 7.01 | < 4.70 | 8.59 |  |  |
| CC(=O)N[C@H](Cc1c[nH]c2ccccc12)C(=O)N[C@@H](CC(C)C)C(=O)N[C@@H](CCCNC(=N)N)C(=O)c1nc2ccccc2s1 [PK-1-91, N-[(S)-1-[(1,3-benzothiazol-2-yl)carbonyl]-4-guanidinobutyl](S)-2-[(R)-2-acetylamino-3-(3-indolyl)propionylamino]-4-methylvaleramide] | 10.59 | 8.80 | 6.98 |  | 5.84 | 5.03 | 7.41 |  |  |
| CC(=O)N[C@@H](Cc1c[nH]c2ccccc12)C(=O)N[C@@H](Cc1ccccc1)C(=O)N[C@@H](CCCNC(=N)N)C(=O)c1nc2ccccc2s1 [PK-1-102A1, N-[(S)-1-[(1,3-benzothiazol-2-yl)carbonyl]-4-guanidinobutyl](S)-2-[(S)-2-acetylamino-3-(3-indolyl)propionylamino]-3-phenylpropionamide] | 9.41 | 8.12 | 6.48 |  | 7.67 | < 4.70 | 8.24 |  |  |
| CC(=O)N[C@@H](Cc1c[nH]c2ccccc12)C(=O)N[C@@H](CC(C)C)C(=O)N[C@@H](CCCNC(=N)N)C(=O)c1nc2ccccc2s1 [PK-1-104, N-[(S)-1-[(1,3-benzothiazol-2-yl)carbonyl]-4-guanidinobutyl](S)-2-[(S)-2-acetylamino-3-(3-indolyl)propionylamino]-4-methylvaleramide] | 8.89 | 9.03 | 7.12 |  | 6.05 | 4.77 | 7.59 |  |  |
| CSCC[C@@H]1NC(=O)[C@@H](NC(C)=O)CC(=O)NCCCC[C@@H](C(=O)N[C@@H](CCCNC(=N)N)C(=O)c2nc3ccccc3s2)NC1=O [VD3173, N-[(S)-1-[(1,3-benzothiazol-2-yl)carbonyl]-4-guanidinobutyl]-(3S,6S,14S)-6-acetylamino-3-[2-(methylthio)ethyl]-2,5,8-trioxo-1,4,9-triaza-14-cyclotetradecanecarboxamide] | 9.40 |  |  |  | 5.86 | 4.73 | 9.00 | 8.23 | 5.49 |
| CC(=O)N[C@H]1Cc2ccc(cc2)OC/C=C\C[C@@H](C(=O)N[C@@H](CCCNC(=N)N)C(=O)c2nc3ccccc3s2)NC(=O)[C@H](CC(C)C)NC1=O [VD4010, N-[(S)-1-[(1,3-benzothiazol-2-yl)carbonyl]-4-guanidinobutyl]-(4Z,7S,10S,13S)-13-acetylamino-10-isobutyl-9,12-dioxo-2-oxa-8,11-diazabicyclo[13.2.2]nonadeca-1(17),4,15,18-tetraene-7-carboxamide] | 8.92 | 9.77 | 7.28 | 8.47 | 6.91 | < 4.70 |  |  |  |
